PMC11979881, “Engineering Multifunctional Peptide-Decorated Nanofibers for Targeted Delivery of Temozolomide across the Blood–Brain Barrier” (Molecular Pharmaceutics, 2025)

Key:
U-118 MG [1] = assay: PrestoBlue cell viability, 2D U-118; type: cell-based, human
Protocol: (§1) Glioblastoma/astrocytoma U-87 MG (U-87) and glioma U-118 MG (U-118) cell lines derived from the human brain were plated in 25 cm^2 flasks. They were grown individually in Dulbecco’s modified eagle’s medium high glucose (DMEM), supplemented with fetal bovine serum (FBS, 10%), penicillin/streptomycin (P/S, 100 U/mL), and L-glutamine (L/GLUT, 2 mM, Sigma-Aldrich), in a humidified incubator (37 °C, 5% CO2). At 70% confluence, cells were individually detached with a 0.25% solution of trypsin-EDTA.
(§2) For 2D experiments, U-118 and U-87 cells were seeded in 48-well plates, at approximately 20,000 cells per well in DMEM culture medium with 10% FBS, under standard cell culture conditions (5% CO2, 37 °C). Once the cells were attached, they were treated for 24, 48, and 72 h with 1) NF-TMZ carrying TMZ at different concentrations: 2.5, 5, 7.5, and 10 μM; 2) NF-t; 3) free TMZ at different concentrations (0, 10, 100, and 250 μM). […] At the end of the incubation time, a cell viability assay was performed using the PrestoBlue assay: the cells were incubated for 1 h according to the manufacturer’s protocol, and then absorbance was measured at 570 nm (with 600 nm as the reference wavelength) using a Bio-Tek Synergy HT Microplate reader.

U-87 MG = assay: PrestoBlue cell viability, 2D U-87; type: cell-based, human
Protocol: as §1, §2

3D U-87 [2] = assay: PrestoBlue cell viability, 3D U-87 spheroids; type: cell-based, human; details: 3D U-87, 10 μM TMZ, 72 h, treated every 24 h
Protocol: Once the appropriate concentration corresponding to the greatest lowering of cell viability was established, we proceeded with the 3D U-118 and 3D U-87 cell assays. To produce 3D U-118 and 3D U-87 cells, we used the hanging drop method. Briefly, 10,000 cells per drop were placed in the lid of a 100 mm dish, creating a hydration chamber by placing PBS in the dish bottom. After incubating for 48 h at 37 °C/5% CO2, the aggregates were transferred to a 48-well plate (5 spheroids per well: approximately 50,000 cells/well). The 3D cells were treated every 24 h for 3 days. Each treatment was conducted on 10 spheroids: approximately 100,000 cells for each experimental class: 1) control; 2) NF-t; 3) NF-TMZ (10 μM); 4) free TMZ (10 μM). At the end of the incubation time, a cell viability assay was performed with using the PrestoBlue assay: the cells were incubated for 90 min, according to the manufacturer’s protocol. At the end of the incubation time, we measured the absorbance at 570 nm (with 600 nm as the reference wavelength) using a Bio-Tek Synergy HT Microplate reader.

[3] = tested on: human brain microvascular endothelial cells (HBMEC); assay: PrestoBlue cell viability, HBMEC; type: cell-based; details: treated every 24 h for 3 days, TMZ 10 μM
Protocol: To verify whether NF-t or NF-TMZ influenced healthy brain endothelial cells constitutively expressing EGFRs, the experiment described above was conducted on human brain microvascular endothelial cells (HBMEC) and brain endothelial cells (bEnd.3) to assess their effects . Cells were seeded in a 96-well plate (15,000 cells per well) in their appropriate culture medium. After 24 h, cells were treated likewise with U-118 and U-87 cells with 10 μM TMZ, both conjugated and unconjugated with NF-t. The control was performed on cells cultured only in the medium. Under the same conditions as for 2D cells, the PrestoBlue assay was performed. […] TMZ release from NF-TMZ was evaluated using matrix metalloproteinase-9 (MMP-9). In particular, NF-TMZ was prepared as reported before and hydrated in the following buffer solution: 50 mM HEPES, 200 mM NaCl, 10 mM CaCl2, and 1 mM ZnCl2, at pH 7. The MMP-9 was preactivated with APMA 100 μM and Tris-HCl 50 mM (pH 7.2) and was left at 37 °C for 3 h.[33],[35] Once activated, MMP-9 was added to NF-TMZ and the culture medium at a final concentration of 40 nM; and cells were incubated for 72 h.

3D U-118 [4] = assay: Annexin V-FITC/Propidium Iodide assay, 3D U-118; type: cell-based, human; details: 3D U-118, 24 h, TMZ 10 μM
Protocol: (§3) To identify apoptotic and necrotic cells, Annexin V-FITC/Propidium Iodide (PI) assay was performed according to the manufacturer’s protocol. Annexin V highlights apoptotic cells by binding to phosphatidylserine (PS) on their membranes . Propidium Iodide (PI) binds to the DNA of necrotic cells, as it is not permeable to the cell membrane. Cells lose the membrane integrity, Annexin V-FITC/PI can enter the cells. After the 3D cell treatment, cells were stained with Annexin V-FITC/PI for 20 min in the dark. After washing with PBS, nuclei were labeled with 4′,6-diamidino-2-phenylindole (DAPI) for 5 min. Images of the 3D cells were acquired using the JuLi Stage_RealTime Cell History Recorder microscope with a 10x objective, using different channels: RFP, GFP, and DAPI. The images were corrected for brightness and contrast using Fiji software and analyzed to evaluate morphological parameters after treatments. For each experimental condition, three different assays were repeated.

3D U-87 [5] = assay: Annexin V-FITC/Propidium Iodide assay, 3D U-87; type: cell-based, human; details: TMZ 10 μM
Protocol: as §3

U118 MG spheroids = assay: Spheroid shape descriptors (Fiji), U118 MG; type: cell-based, human
Protocol: as §3
(§4) To evaluate shape descriptors, 10 spheroids for each formulation were imaged and analyzed by Fiji software (Table 4).
(§5) Table 4 was obtained using Fiji software, for U-118 and U-87 spheroids treated with NF-TMZ, free TMZ, and NF-t, compared with controls (no treatment), ***p < 0.001. Circularity was calculated as [drawing 3] . Values of 1.0 indicate a perfect circle; while as the value approaches 0.0, it indicates an increasingly elongated shape. Feret’s diameter was the maximum caliper of the object, also known as the longest distance between any two points along the selection boundary. The minimum caliper diameter is indicated as Min Feret. The aspect ratio of the particle’s fitted ellipse was calculated as [drawing 4] and is indicated as AR. Roundness was calculated as 4 [drawing 5] and is the inverse of AR. Shape descriptors describe the eventual changes in spheroid morphology following treatment.

U87 MG spheroids = assay: Spheroid shape descriptors (Fiji), U87 MG; type: cell-based, human
Protocol: as §3, §4, §5

3D U-118 [6] = assay: PrestoBlue viability on 3D dynamic in vitro BBB model, 3D U-118; type: cell-based, human; details: 3D U-118 in lower chamber, injection into upper chamber, TMZ 10 μM, 72 h
Protocol: (§6) To evaluate the effects of NF-TMZ on fluid-dynamically cultured 3D GBM cells, we set up different bioreactors containing HBMEC and hPC-PL cells in the upper chamber and 3D U-118 cells or 3D U-87 cells in the lower chamber. NF-TMZ (10 μM), NF-t, and free TMZ (10 μM) were injected into the upper chamber, and their effects were evaluated after 72 h using the PrestoBlue viability assay. Briefly, 72 h after treatment, spheroids in the lower chamber were taken out and placed inside 48-well plates, and the PrestoBlue viability reagent (1:10) was added for 1.5 h. The absorbance was quantified using a Bio-Tek Synergy HT Microplate Reader. The control bioreactor was performed with HBMEC and hPC–PL cells in the upper chamber; and 3D U-118 MG cells and 3D U-87 MG cells in the lower chamber without treatment.

3D U-87 [7] = assay: PrestoBlue viability on 3D dynamic in vitro BBB model, 3D U-87; type: cell-based, human; details: 3D U-87 in lower chamber, injection into upper chamber, TMZ 10 μM, 72 h
Protocol: as §6

U-118 MG [8] = details: U-118, 72 h, same experimental conditions; cited from earlier work
Protocol: In 2D experiments, we observed a remarkable effect on U-118 cells with all nanofibers carrying TMZ at different concentrations, which increased proportionally with the concentration. In particular, treatment with NF-TMZ (carrying TMZ at a concentration of 10 μM) caused a decrease in cell viability at 72 h by more than 40%, whereas a similar decrease (under the same experimental conditions) is reported in the literature with a TMZ concentration of 100 μM.[41] U-87 cells responded less to the treatment, but we still observed a reduction in cell viability of 30%. Indeed, the experiments performed ...

[9] = cited from earlier work
Description: GBM is the most aggressive type of brain cancer, with a 5-year survival rate of less than 5% and a median survival period of 12–15 months.[9],[10] The standard treatment, consisting of surgery followed by chemotherapy with temozolomide (TMZ) and radiation therapy, marginally improves survival.

[10] = U118 MG spheroids, 10 spheroids per formulation, Fiji, ***p < 0.001 vs controls
[11] = U87 MG spheroids, 10 spheroids per formulation, Fiji

Cn1nnc2c(C(N)=O)ncn2c1=O [TMZ, temozolomide]
free TMZ concentration giving a similar effect as NF-TMZ (TMZ 10 μM) (U-118 MG [1]): 100 to 250 µM
free TMZ concentration giving a similar effect as NF-TMZ (TMZ 10 μM) (U-87 MG; 2D U-87): 100 to 250 µM
concentrations at which TMZ acted on cell survival (U-87 MG; 2D U-87, 24- and 48-h treatments): ≥ 100 µM
decrease in viability compared to the control (3D U-87 [2]): 55%
cell viability versus control [3]: no significant difference
apoptotic cells (Annexin V) (3D U-118 [4]): initial burst of apoptosis
apoptotic cells (Annexin V) compared to the control (3D U-87 [5]; 3D U-87, 24 h): four-time increasing level
necrotic cells (PI) (3D U-87 [5]; 3D U-87, 48 h): increase in necrotic cells
spheroid surface area compared to control and NF-t (U118 MG spheroids; 3D U-118): significantly lower
Circularity (U118 MG spheroids; U118 MG spheroids, 10 spheroids per formulation, Fiji): 0.425
Feret’s diameter (U118 MG spheroids; [10]): 512.096
Min Feret (U118 MG spheroids; [10]): 397.785
AR (U118 MG spheroids; U118 MG spheroids, aspect ratio of fitted ellipse, Fiji): 1.298
Round (U118 MG spheroids; U118 MG spheroids, roundness, Fiji): 0.802
spheroid surface area compared to control and NF-t (U87 MG spheroids; 3D U-87): significantly lower
Circularity (U87 MG spheroids; [11]): 0.280
Feret’s diameter (U87 MG spheroids; [11]): 841.910
Min Feret (U87 MG spheroids; [11]): 612.895
AR (U87 MG spheroids; U87 MG spheroids, aspect ratio of fitted ellipse, Fiji): 1.404
Round (U87 MG spheroids; U87 MG spheroids, roundness, Fiji): 0.732
lower viability compared with the control (3D U-118 [6]): < 20%
lower viability compared with the control (3D U-87 [7]): 13%
TMZ concentration reported for a similar decrease in cell viability (U-118 MG [8]): 100 µM
extravasation from blood to brain [9]: ~20%
plasma half-life [9]: 2 h
water solubility [9]: poor water solubility
